Measured values reported in the NIST ThermoML archive (doi:10.1021/acs.jced.6b00750).

Conditions: Liquid; for mass density: Vibrating wire densiometer; for viscosity: Vibrating wire viscometry

CCCCCCCCCCCCCCCC [hexadecane]
Conditions	mass density [kg/m3]	viscosity [mPa·s]
298.36 K, 1060 kPa	769.2	3.107
298.36 K, 1080 kPa	769.2	3.109
298.36 K, 10010 kPa	775	3.497
298.36 K, 21090 kPa	781.2	4.032
298.36 K, 30500 kPa	786.4	4.534
298.61 K, 970 kPa	768.9	3.143
298.61 K, 10340 kPa	774.7	3.562
298.61 K, 20570 kPa	780.8	4.041
298.61 K, 30370 kPa	785.9	4.588
323.21 K, 1090 kPa	751.5	1.874
323.21 K, 1250 kPa	751.7	1.872
323.21 K, 21100 kPa	765.2	2.387
323.21 K, 40990 kPa	776.9	2.957
323.21 K, 60490 kPa	787.1	3.598
323.21 K, 80320 kPa	796	4.381
323.21 K, 102810 kPa	803.3	5.08
323.22 K, 990 kPa	752.4	1.878
323.22 K, 20960 kPa	764.8	2.429
323.22 K, 42100 kPa	777.2	3.007
323.22 K, 61170 kPa	787.4	3.666
323.22 K, 81170 kPa	796	4.471
348.2 K, 610 kPa	734.8	1.275
348.2 K, 1010 kPa	734.4	1.255
348.2 K, 1070 kPa	734.5	1.251
348.2 K, 20050 kPa	749.2	1.57
348.2 K, 20370 kPa	749.8	1.595
348.2 K, 40520 kPa	762.5	1.939
348.2 K, 40780 kPa	762.9	1.97
348.2 K, 60680 kPa	773.7	2.356
348.2 K, 62000 kPa	773.9	2.398
348.2 K, 80380 kPa	783.3	2.813
348.2 K, 80450 kPa	783.5	2.806
348.2 K, 100940 kPa	791.9	3.278
373.12 K, 1210 kPa	717.2	0.911
373.12 K, 1240 kPa	717.3	0.91
373.12 K, 20080 kPa	733.9	1.136
373.12 K, 40700 kPa	748.6	1.397
373.12 K, 60760 kPa	760.8	1.678
373.12 K, 80760 kPa	771.3	1.988
373.12 K, 100220 kPa	780.9	2.303
373.25 K, 1370 kPa	717.7	0.926
373.25 K, 19850 kPa	733.7	1.148
373.25 K, 40190 kPa	748.6	1.399
373.25 K, 59970 kPa	760.4	1.692
373.25 K, 81310 kPa	771.4	1.995
398.21 K, 1230 kPa	700.1	0.693
398.21 K, 1670 kPa	700.4	0.694
398.21 K, 20450 kPa	719.1	0.872
398.21 K, 40750 kPa	735.1	1.066
398.21 K, 60560 kPa	748.2	1.265
398.21 K, 80390 kPa	759.4	1.488
398.21 K, 100460 kPa	769.4	1.71
398.28 K, 1050 kPa	700.3	0.697
398.28 K, 21190 kPa	719.6	0.879
398.28 K, 41290 kPa	735.3	1.082
398.28 K, 59990 kPa	747.8	1.267
398.28 K, 80670 kPa	759.3	1.498
423.26 K, 1360 kPa	682.2	0.542
423.26 K, 1420 kPa	682.4	0.544
423.26 K, 20790 kPa	704.2	0.691
423.26 K, 40900 kPa	721.5	0.845
423.26 K, 60040 kPa	735.2	0.998
423.26 K, 80490 kPa	747.7	1.171
423.26 K, 100020 kPa	758.2	1.348
423.31 K, 1460 kPa	682.9	0.554
423.31 K, 20610 kPa	704.4	0.699
423.31 K, 40760 kPa	721.8	0.853
423.31 K, 60120 kPa	735.2	1.012
423.31 K, 80990 kPa	748.2	1.189
448.23 K, 1100 kPa	664	0.437
448.23 K, 1170 kPa	664.1	0.438
448.23 K, 20220 kPa	688.7	0.559
448.23 K, 40500 kPa	708.1	0.689
448.23 K, 60460 kPa	723.5	0.82
448.23 K, 80430 kPa	736.5	0.958
448.23 K, 100270 kPa	748	1.098
448.48 K, 1230 kPa	663.8	0.445
448.48 K, 20750 kPa	688.9	0.571
448.48 K, 40680 kPa	707.8	0.702
448.48 K, 60650 kPa	723.1	0.831
448.48 K, 80720 kPa	736.2	0.97
473.54 K, 1250 kPa	645.4	0.359
473.54 K, 1270 kPa	645.8	0.36
473.54 K, 20770 kPa	674.2	0.469
473.54 K, 40980 kPa	695.3	0.579
473.54 K, 60770 kPa	711.8	0.688
473.54 K, 80500 kPa	725.5	0.803
473.54 K, 101080 kPa	738.1	0.924
473.85 K, 1400 kPa	645.2	0.367
473.85 K, 21260 kPa	674.3	0.478
473.85 K, 41040 kPa	694.7	0.59
473.85 K, 61190 kPa	711.3	0.706
473.85 K, 81710 kPa	725.7	0.815
